Reference: patent publication US12139492B2 (Endotarget Inc., priority 2021, dated 2024)

Columns and labels:
JeKo-1 cells = assay: Antiproliferative effect, MTS cell viability assay, JeKo-1 cells; assay type: cell-based; details: Homo sapiens; JeKo-1 mantle cell lymphoma cells; read-out: IC50 (anti-proliferation) JeKO-1 cells
Summary of the method: (§1)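 Mino and JeKo-1 mantle B-cell lymphoma lines were exposed to compound at 0, 0.001, 0.01, 0.1, 1 and 10 μM for 72 h. Viability was read by MTS reduction to formazan, measured as absorbance at 490 nm.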

BTK [1] = target: T1, BTK (Homo sapiens, UniProt Q06187); assay: Degradation of BTK protein in Namalwa cells (Western blot; DC50, Dmax); details: Namalwa B lymphocyte cells, Western blot; for degradation of BTK protein: various concentrations, 24 hours
BTK [2] = target: T1, BTK; assay: BTK degradation, DC50 and Dmax of Table 1 (cell line not given); assay type: cell-based; set-up: endogenous in cells; details: for DC50: concentration giving 50% reduction of BTK expression level
Mino cells = assay: Antiproliferative effect, MTS cell viability assay, Mino cells; assay type: cell-based; details: Homo sapiens, MINO, Mino mantle cell lymphoma cells; read-out: IC50 (anti-proliferation) Mino cells
Summary of the method: as §1

T1 sequence (Q06187 whole entry): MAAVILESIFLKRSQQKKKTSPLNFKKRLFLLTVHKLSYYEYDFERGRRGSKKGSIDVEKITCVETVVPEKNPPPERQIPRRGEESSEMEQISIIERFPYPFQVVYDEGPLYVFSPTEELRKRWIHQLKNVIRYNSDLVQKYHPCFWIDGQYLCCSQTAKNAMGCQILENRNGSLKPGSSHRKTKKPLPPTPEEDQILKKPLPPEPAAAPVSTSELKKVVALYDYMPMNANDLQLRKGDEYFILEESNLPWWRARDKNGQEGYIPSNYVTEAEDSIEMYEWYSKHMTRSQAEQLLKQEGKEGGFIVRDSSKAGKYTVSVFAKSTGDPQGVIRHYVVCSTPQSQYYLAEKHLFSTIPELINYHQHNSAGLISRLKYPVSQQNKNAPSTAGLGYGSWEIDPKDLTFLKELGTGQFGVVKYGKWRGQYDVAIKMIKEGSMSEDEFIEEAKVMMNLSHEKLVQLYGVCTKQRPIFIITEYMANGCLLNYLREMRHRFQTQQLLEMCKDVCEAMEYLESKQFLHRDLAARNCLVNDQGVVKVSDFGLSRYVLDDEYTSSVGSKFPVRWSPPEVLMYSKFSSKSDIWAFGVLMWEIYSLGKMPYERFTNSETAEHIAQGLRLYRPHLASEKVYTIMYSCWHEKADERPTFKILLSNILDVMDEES

Row | SMILES | degradation of BTK protein at 10^−6 M (BTK [1]) | Dmax (BTK [2]) [%] | DC50 (BTK [2]) [µM] | degradation of BTK protein (BTK [1]) | IC50 (JeKo-1 cells) [µM] | IC50 (Mino cells) [µM]
1 | Nc1ncnc2c1c(-c1ccc(Oc3ccccc3)cc1)nn2[C@@H]1CCCN(C(=O)N2CCN(c3ccc4c(c3)C(=O)N(C3CCC(=O)NC3=O)C4=O)CC2)C1 (stereo partly drawn) [Compound 45, 5-(4-((R)-3-(4-amino-3-(4-phenoxyphenyl)-1H-pyrazolo[3,4-d]pyrimidin-1-yl)piperidine-1-carbonyl)piperazin-1-yl)-2-(2,6-dioxopiperidin-3-yl)isoindoline-1,3-dione] | degradation | > 50 | > 0.05 |  | > 10 | > 10
2 | Nc1ncnc2c1c(-c1ccc(Oc3ccccc3)cc1)nn2[C@@H]1CCCN(C(=O)N2CCC(C3CCN(c4ccc5c(c4)C(=O)N(C4CCC(=O)NC4=O)C5=O)CC3)CC2)C1 (stereo partly drawn) [Compound 49, 5-(1′-((R)-3-(4-amino-3-(4-phenoxyphenyl)-1H-pyrazolo(3,4-d)pyrimidin-1-yl)piperidine-1-carbonyl)-(4,4′-bipiperidin)-1-yl)-2-(2,6-dioxopiperidin-3-yl)isoindoline-1,3-dione] | degradation | > 90 | 0.01 to 0.05 |  | 1 to 10 | 1 to 10
3 | Nc1ncnc2c1c(-c1ccc(Oc3ccccc3)cc1)nn2[C@@H]1CCCN(C2CCN(C(=O)N3CCC(CCC4CCN(c5ccc6c(c5)CN(C5CCC(=O)NC5=O)C6=O)CC4)CC3)CC2)C1 (stereo partly drawn) [Compound 186, 3-(5-(4-(2-(1-((R)-3-(4-amino-3-(4-phenoxyphenyl)-1H-pyrazolo[3,4-d]pyrimidin-1-yl)-[1,4′-bipiperidine]-1′-carbonyl)piperidin-4-yl)ethyl)piperidin-1-yl)-1-oxoisoindolin-2-yl)piperidine-2,6-dione] |  | > 75 | 0.01 to 0.05 |  | 1 to 10 | 1 to 10
4 | Nc1ncnc2c1c(-c1ccc(Oc3ccccc3)cc1)nn2C1CCCN(CCOCCC2CCN(c3ccc4c(c3)C(=O)N(C3CCC(=O)NC3=O)C4=O)CC2)C1 (stereo not drawn) [Compound 23, 5-(4-(2-(2-(3-(4-amino-3-(4-phenoxyphenyl)-1H-pyrazolo[3,4-d]pyrimidin-1-yl)piperidin-1-yl)ethoxy)ethyl)piperidin-1-yl)-2-(2,6-dioxopiperidin-3-yl)isoindoline-1,3-dione] |  | > 75 | > 0.05 |  | 1 to 10 | 1 to 10
5 | Nc1ncnc2c1c(-c1ccc(Oc3ccccc3)cc1)nn2[C@@H]1CCCN(CC2CCN(CCCN3CCC(c4ccc5c(c4)C(=O)N(C4CCC(=O)NC4=O)C5=O)CC3)CC2)C1 (stereo partly drawn) [Compound 139, 5-(1-(3-(4-(((R)-3-(4-amino-3-(4-phenoxyphenyl)-1H-pyrazolo[3,4-d]pyrimidin-1-yl)piperidin-1-yl)methyl)piperidin-1-yl)propyl)piperidin-4-yl)-2-(2,6-dioxopiperidin-3-yl)isoindoline-1,3-dione] |  | > 75 | 0.01 to 0.05 |  | > 10 | > 10
6 | Nc1ncnc2c1c(-c1ccc(Oc3ccccc3)cc1)nn2C1CCCN(CCOCCOCCN2CCC(c3ccc4c(c3)CN(C3CCC(=O)NC3=O)C4=O)CC2)C1 (stereo not drawn) [Compound 14, 3-(5-(1-(2-(2-(2-(3-(4-amino-3-(4-phenoxyphenyl)-1H-pyrazolo[3,4-d]pyrimidin-1-yl)piperidin-1-yl)ethoxy)ethoxy)ethyl)piperidin-4-yl)-1-oxoisoindolin-2-yl)piperidine-2,6-dione] |  | > 90 | 0.01 to 0.05 |  | 1 to 10 | 1 to 10
7 | Nc1ncnc2c1c(-c1ccc(Oc3ccccc3)cc1)nn2[C@@H]1CCCN(C(=O)N2CCC(c3ccc4c(c3)CN(C3CCC(=O)NC3=O)C4=O)CC2)C1 (stereo partly drawn) [Compound 48, 3-(5-(1-((R)-3-(4-amino-3-(4-phenoxyphenyl)-1H-pyrazolo[3,4-d]pyrimidin-1-yl)piperidine-1-carbonyl)piperidin-4-yl)-1-oxoisoindolin-2-yl)piperidine-2,6-dione] |  | > 50 | > 0.05 |  | > 10 | > 10
8 | Nc1ncnc2c1c(-c1ccc(Oc3ccccc3)cc1)nn2[C@@H]1CCCN(C2CCN(CCCN3CCN(c4ccc5c(c4)CN(C4CCC(=O)NC4=O)C5=O)CC3)CC2)C1 (stereo partly drawn) [Compound 152, 3-(5-(4-(3-((R)-3-(4-amino-3-(4-phenoxyphenyl)-1H-pyrazolo[3,4-d]pyrimidin-1-yl)-[1,4′-bipiperidin]-1′-yl)propyl)piperazin-1-yl)-1-oxoisoindolin-2-yl)piperidine-2,6-dione] |  | > 75 | > 0.05 |  | > 10 | > 10
9 | Nc1ncnc2c1c(-c1ccc(Oc3ccccc3)cc1)nn2[C@@H]1CCCN(C2CCN(C(=O)N3CCN(CCC4CCN(c5ccc6c(c5)CN(C5CCC(=O)NC5=O)C6=O)CC4)CC3)CC2)C1 (stereo partly drawn) [Compound 178, 3-(5-(4-(2-(4-((R)-3-(4-amino-3-(4-phenoxyphenyl)-1H-pyrazolo[3,4-d]pyrimidin-1-yl)-[1,4′-bipiperidine]-1′-carbonyl)piperazin-1-yl)ethyl)piperidin-1-yl)-1-oxoisoindolin-2-yl)piperidine-2,6-dione] |  | > 75 | > 0.05 |  | > 10 | > 10

The next lines start with results.

Row | degradation of BTK protein at 10^−6 M (BTK [1]) | Dmax (BTK [2]) [%] | DC50 (BTK [2]) [µM] | degradation of BTK protein (BTK [1]) | SMILES | IC50 (JeKo-1 cells) [µM] | IC50 (Mino cells) [µM]
10 | degradation | > 90 | < 0.01 | dose-dependent degradation | Nc1ncnc2c1c(-c1ccc(Oc3ccccc3)cc1)nn2C1CCN(CC2CCN(C(=O)N3CCN(c4ccc5c(c4)C(=O)N(C4CCC(=O)NC4=O)C5=O)CC3)CC2)CC1 (stereo not drawn) [Compound 35, 5-(4-(4-((4-(4-amino-3-(4-phenoxyphenyl)-1H-pyrazolo(3,4-d)pyrimidin-1-yl)piperidin-1-yl)methyl)piperidine-1-carbonyl)piperazin-1-yl)-2-(2,6-dioxopiperidin-3-yl)isoindoline-1,3-dione] | 1 to 10 | < 1
11 | degradation | > 90 | 0.01 to 0.05 | dose-dependent degradation | Nc1ncnc2c1c(-c1ccc(Oc3ccccc3)cc1)nn2[C@@H]1CCCN(CC2CCN(C(=O)N3CCC(CN4CCN(c5ccc6c(c5)C(=O)N(C5CCC(=O)NC5=O)C6=O)CC4)CC3)CC2)C1 (stereo partly drawn) [Compound 31, 5-(4-((1-(4-(((R)-3-(4-amino-3-(4-phenoxyphenyl)-1H-pyrazolo(3,4-d)pyrimidin-1-yl)piperidin-1-yl)methyl)piperidine-1-carbonyl)piperidin-4-yl)methyl)piperazin-1-yl)-2-(2,6-dioxopiperidin-3-yl)isoindoline-1,3-dione] | 1 to 10 | 1 to 10
12 | degradation | > 75 | > 0.05 | dose-dependent degradation | Nc1ncnc2c1c(-c1ccc(Oc3ccccc3)cc1)nn2[C@@H]1CCCN(C2CCN(C(=O)N3CCC(C4CCN(c5ccc6c(c5)C(=O)N(C5CCC(=O)NC5=O)C6=O)CC4)CC3)CC2)C1 (stereo partly drawn) [Compound 163, 5-(1′-((R)-3-(4-amino-3-(4-phenoxyphenyl)-1H-pyrazolo(3,4-d)pyrimidin-1-yl)-(1,4′-bipiperidine)-1′-carbonyl)-(4,4′-bipiperidin)-1-yl)-2-(2,6-dioxopiperidin-3-yl)isoindoline-1,3-dione] | > 10 | 1 to 10
13 | degradation | > 90 | > 0.05 | dose-dependent degradation | Nc1ncnc2c1c(-c1ccc(Oc3ccccc3)cc1)nn2C1CCN(CC2CCN(C(=O)N3CCC(C4CCN(c5ccc6c(c5)C(=O)N(C5CCC(=O)NC5=O)C6=O)CC4)CC3)CC2)CC1 (stereo not drawn) [Compound 39, 5-(1′-(4-((4-(4-amino-3-(4-phenoxyphenyl)-1H-pyrazolo(3,4-d)pyrimidin-1-yl)piperidin-1-yl)methyl)piperidine-1-carbonyl)-(4,4′-bipiperidin)-1-yl)-2-(2,6-dioxopiperidin-3-yl)isoindoline-1,3-dione] | > 10 | 1 to 10
14 | degradation | > 75 | > 0.05 |  | Nc1ncnc2c1c(-c1ccc(Oc3ccccc3)cc1)nn2[C@@H]1CCCN(CC2CCN(C(=O)N3CCN(c4ccc5c(c4)C(=O)N(C4CCC(=O)NC4=O)C5=O)CC3)CC2)C1 (stereo partly drawn) [Compound 25, 5-(4-(4-(((R)-3-(4-amino-3-(4-phenoxyphenyl)-1H-pyrazolo(3,4-d)pyrimidin-1-yl)piperidin-1-yl)methyl)piperidine-1-carbonyl)piperazin-1-yl)-2-(2,6-dioxopiperidin-3-yl)isoindoline-1,3-dione] | 1 to 10 | 1 to 10
15 |  | > 75 | > 0.05 |  | Nc1ncnc2c1c(-c1ccc(Oc3ccccc3)cc1)nn2[C@@H]1CCCN(CC2CCN(CCCC3CCN(c4ccc5c(c4)C(=O)N(C4CCC(=O)NC4=O)C5=O)CC3)CC2)C1 (stereo partly drawn) [Compound 141, 5-(4-(3-(4-(((R)-3-(4-amino-3-(4-phenoxyphenyl)-1H-pyrazolo[3,4-d]pyrimidin-1-yl)piperidin-1-yl)methyl)piperidin-1-yl)propyl)piperidin-1-yl)-2-(2,6-dioxopiperidin-3-yl)isoindoline-1,3-dione] | 1 to 10 | 1 to 10
16 |  | > 90 | 0.01 to 0.05 |  | Nc1ncnc2c1c(-c1ccc(Oc3ccccc3)cc1)nn2[C@@H]1CCCN(C(=O)N2CCC(CN3CCC(c4ccc5c(c4)C(=O)N(C4CCC(=O)NC4=O)C5=O)CC3)CC2)C1 (stereo partly drawn) [Compound 61, 5-(1-((1-((R)-3-(4-amino-3-(4-phenoxyphenyl)-1H-pyrazolo[3,4-d]pyrimidin-1-yl)piperidine-1-carbonyl)piperidin-4-yl)methyl)piperidin-4-yl)-2-(2,6-dioxopiperidin-3-yl)isoindoline-1,3-dione] | < 1 | < 1
